Biological target: T1, Kinesin-like protein KIF11 (Homo sapiens, UniProt P52732)
T1 sequence (P52732 whole entry): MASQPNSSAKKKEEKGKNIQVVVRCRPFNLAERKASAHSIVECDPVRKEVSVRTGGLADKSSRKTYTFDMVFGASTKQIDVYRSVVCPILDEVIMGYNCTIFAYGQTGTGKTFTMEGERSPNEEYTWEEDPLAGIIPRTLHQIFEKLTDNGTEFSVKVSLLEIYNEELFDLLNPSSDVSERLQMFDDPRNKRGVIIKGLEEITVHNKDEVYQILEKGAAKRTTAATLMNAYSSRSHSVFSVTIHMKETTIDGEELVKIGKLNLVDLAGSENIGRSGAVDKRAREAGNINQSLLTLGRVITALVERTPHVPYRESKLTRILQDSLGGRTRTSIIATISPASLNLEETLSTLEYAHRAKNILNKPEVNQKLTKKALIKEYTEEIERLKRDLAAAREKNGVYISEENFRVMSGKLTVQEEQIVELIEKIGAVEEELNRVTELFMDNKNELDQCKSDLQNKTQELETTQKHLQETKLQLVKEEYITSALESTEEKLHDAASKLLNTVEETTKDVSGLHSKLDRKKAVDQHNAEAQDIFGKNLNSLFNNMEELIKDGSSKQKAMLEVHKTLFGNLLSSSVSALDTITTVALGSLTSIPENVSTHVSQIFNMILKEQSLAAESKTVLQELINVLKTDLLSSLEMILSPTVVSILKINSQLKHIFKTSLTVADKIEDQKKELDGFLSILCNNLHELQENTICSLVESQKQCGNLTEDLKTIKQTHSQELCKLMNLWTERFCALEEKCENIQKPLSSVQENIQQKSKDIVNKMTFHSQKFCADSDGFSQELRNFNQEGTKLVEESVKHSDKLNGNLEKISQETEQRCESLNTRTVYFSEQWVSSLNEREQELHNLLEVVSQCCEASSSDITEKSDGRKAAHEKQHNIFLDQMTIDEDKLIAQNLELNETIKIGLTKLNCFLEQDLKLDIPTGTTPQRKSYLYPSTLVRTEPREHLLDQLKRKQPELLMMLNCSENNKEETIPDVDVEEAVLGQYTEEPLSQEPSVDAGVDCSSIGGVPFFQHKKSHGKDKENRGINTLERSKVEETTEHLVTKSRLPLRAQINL
Assay: Microtubule-Activated Eg5 ATPase Assay
Description: ATPase assays with Eg5 motor domain protein were performed using Kinase-Glo Luminescent Kit as described by the manufacturer (Promega).

IC50: 477 nM
Compound: CN(C)C(=O)N1Cc2c(ccc3ccccc23)C(c2cccc(O)c2)C1 (stereo unspecified) [6-(3-hydroxyphenyl)-N,N-dimethyl-4-azatricyclo[8.4.0.0^{2,7}]tetradeca-1(10),2(7),8,11,13-pentaene-4-carboxamide]

— BindingDB's records for doi:10.1016/j.bmcl.2006.01.056 (Bristol-Myers Squibb, 2006)
